Source: patent publication US20090005398A1, “Methods For The Treatment of Central Nervous System Tumors” (priority 2007, published 2009)

Experiments:
Type in all cases: cell-based
H1299 = experiment: Cell-Titer-Glo cell proliferation; conditions: Homo sapiens, NCI-H1299, lung, 72 h
Protocol: (§1) Exponentially growing cell lines of different tumor origins, cultured in appropriate media containing 10% fetal bovine serum at 37° C. in a 5% CO2 incubator were plated at low density (less than 2000 cells/well) in 96-well plates. Twenty four hours post-plating, cells were treated with different concentrations of compound ranging from 10 uM to 0.04 nM. Several wells were left untreated as a control. Seventy two hours post-treatment, cell numbers were determined using 50-100 ul per well of CellTiter-Glo (Promega #G7573). Plates were incubated at room temperature for 15 minutes and the chemiluminescent signal was read on the Victor V or Envison 2100 reader.
(§2) Concentration of compound that inhibited 50% of cell growth (IC50) was determined by 4 parameter fit of data using XLfit, (value of no cell control was subtracted from all samples for background). The Cell-Titer Glo data are shown in Table 3 below and represent a compilation of several different experiments, each performed using the general parameters outlined above, although minor variations may have been employed in some instances.

ASPC3 = experiment: Cell-Titer-Glo cell proliferation; conditions: pancreas, 72 h
Protocol: as §1, §2

HN5 = experiment: Cell-Titer-Glo cell proliferation; conditions: Homo sapiens, head and neck, 72 h
Protocol: as §1, §2

HCT116 = experiment: Cell-Titer-Glo cell proliferation; conditions: Homo sapiens, HCT-116, colon, 72 h
Protocol: as §1, §2

BXPC3 = experiment: Cell-Titer-Glo cell proliferation; conditions: Homo sapiens, BXPC-3, pancreas, 72 h
Protocol: as §1, §2

MX-1 = experiment: Cell-Titer-Glo cell proliferation; conditions: Homo sapiens, MX1, breast, 72 h
Protocol: as §1, §2

LNCaP = experiment: Cell-Titer-Glo cell proliferation; conditions: Homo sapiens, prostate, 72 h
Protocol: as §1, §2

MCF7 = experiment: Cell-Titer-Glo cell proliferation; conditions: Homo sapiens, breast, 72 h
Protocol: as §1, §2

COLO205 = experiment: Cell-Titer-Glo cell proliferation; conditions: Homo sapiens, COLO 205, colon, 72 h
Protocol: as §1, §2

Hela = experiment: Cell-Titer-Glo cell proliferation; conditions: Homo sapiens, cervix, 72 h
Protocol: as §1, §2

HT29 = experiment: Cell-Titer-Glo cell proliferation; conditions: Homo sapiens, HT-29, colon, 72 h
Protocol: as §1, §2

SKOV-3 = experiment: Cell-Titer-Glo cell proliferation; conditions: Homo sapiens, SK-OV-3, ovary, 72 h
Protocol: as §1, §2

A549-L = experiment: Cell-Titer-Glo cell proliferation; conditions: lung, 72 h
Protocol: as §1, §2

MiaPaca = experiment: Cell-Titer-Glo cell proliferation; conditions: Homo sapiens, MIA PaCa-2, pancreas, 72 h
Protocol: as §1, §2

MDA-MB-468 = experiment: Cell-Titer-Glo cell proliferation; conditions: Homo sapiens, breast, 72 h
Protocol: as §1, §2

MV522 = experiment: Cell-Titer-Glo cell proliferation; conditions: lung, 72 h
Protocol: as §1, §2

P388 = experiment: Cell-Titer-Glo cell proliferation; conditions: Mus musculus, blood, 72 h
Protocol: as §1, §2

SF-295 = experiment: Multiple cell line screen, cell proliferation; conditions: Homo sapiens, SF-295, 72 h; glioblastoma; nuclei count, 3 days
Protocol: (§3) Growth properties for multiple cell lines were used to determine two seeding densities for each cell line that would be used in the screen. Cell lines were thawed and grown to 70-80% confluency before being used in the assay. On day −1, cells were seeded at 2 densities in 384-well plates and incubated at 37° C. overnight. Stock compound plates were prepared in advance which contained dimethyl sulfoxide (DMSO) alone and a 9-point half-log decreasing dose range of the compound in DMSO. These plates were stored at −80° C. and each plate was only thawed once and used. On day 0, the main assay plates received compound or DMSO via a sonic delivery system (ECHO). The highest final concentration of compound of the dose range in the culture plates was 10 uM. These plates were cultured at 37° C. for 3 days.
(§4) On day 3, the compound treated plates were stained and fixed to measure proliferation, apoptosis, and mitotic index. A nuclear stain was used to identify cells in the wells. By counting the number of nuclei, the proliferation index of compound treated groups were calculated as a percentage relative to the DMSO control, which was set to 100%. The IC50 values were calculated using model 205 in ExcelFit.

CCF-SSTG1 = experiment: Multiple cell line screen, cell proliferation; conditions: 72 h; astrocytoma; nuclei count, 3 days
Protocol: as §3, §4

SNB-75 = experiment: Multiple cell line screen, cell proliferation; conditions: Homo sapiens, SNB-75, 72 h; glioblastoma; nuclei count, 3 days
Protocol: as §3, §4

SNB-19 = experiment: Multiple cell line screen, cell proliferation; conditions: Homo sapiens, SNB-19, 72 h; glioblastoma; nuclei count, 3 days
Protocol: as §3, §4

U-87MG = experiment: Multiple cell line screen, cell proliferation; conditions: Homo sapiens, 72 h, glioblastoma, astrocytoma, nuclei count, 3 days
Protocol: as §3, §4

SF-539 = experiment: Multiple cell line screen, cell proliferation; conditions: Homo sapiens, SF-539, 72 h; astrocytoma; nuclei count, 3 days
Protocol: as §3, §4

H4 = experiment: Multiple cell line screen, cell proliferation; conditions: 72 h; glioma; nuclei count, 3 days
Protocol: as §3, §4

SW1088 = experiment: Multiple cell line screen, cell proliferation; conditions: Homo sapiens, SW1088, 72 h; astrocytoma; nuclei count, 3 days
Protocol: as §3, §4

SF-268 = experiment: Multiple cell line screen, cell proliferation; conditions: Homo sapiens, SF-268, 72 h; glioblastoma; nuclei count, 3 days
Protocol: as §3, §4

D283Med = experiment: Multiple cell line screen, cell proliferation; conditions: Homo sapiens, D283 Med, 72 h; medulloblastoma; nuclei count, 3 days
Protocol: as §3, §4

A172 = experiment: Multiple cell line screen, cell proliferation; conditions: Homo sapiens, A 172, 72 h; glioblastoma; nuclei count, 3 days
Protocol: as §3, §4

DBTRG-05MG = experiment: Multiple cell line screen, cell proliferation; conditions: Homo sapiens, 72 h, glioblastoma, nuclei count, 3 days
Protocol: as §3, §4

DK-MG = experiment: Multiple cell line screen, cell proliferation; conditions: 72 h; glioblastoma; nuclei count, 3 days
Protocol: as §3, §4

C[C@@H](Oc1cc(-n2cnc3ccc(CN4CCN(C)CC4)cc32)sc1C(N)=O)c1ccccc1C(F)(F)F [Example 1, 5-{6-[(4-Methylpiperazin-1-yl)methyl]-1H-benzimidazol-1-yl}-3-{(1R)-1-[2-(trifluoromethyl)phenyl]ethoxy}thiophene-2-carboxamide]
IC50 (H1299): < 500 nM | IC50 (ASPC3): < 500 nM | IC50 (HN5): < 500 nM | IC50 (HCT116): < 500 nM | IC50 (BXPC3): < 500 nM | IC50 (MX-1): < 500 nM | IC50 (LNCaP): < 500 nM | IC50 (MCF7): < 500 nM | IC50 (COLO205): < 500 nM | IC50 (Hela): < 500 nM | IC50 (HT29): < 500 nM | IC50 (SKOV-3): < 500 nM | IC50 (A549-L): < 500 nM | IC50 (MiaPaca): < 500 nM | IC50 (MDA-MB-468): < 500 nM | IC50 (MV522): < 500 nM | IC50 (P388): < 500 nM | IC50 (SF-295): < 50 nM | IC50 (CCF-SSTG1): < 50 nM | IC50 (SNB-75): 50 to 100 nM | IC50 (SNB-19): < 50 nM | IC50 (U-87MG): < 50 nM | IC50 (SF-539): < 50 nM | IC50 (H4): < 50 nM | IC50 (SW1088): < 50 nM | IC50 (SF-268): < 50 nM | IC50 (D283Med): < 50 nM | IC50 (A172): < 50 nM | IC50 (DBTRG-05MG): < 50 nM | IC50 (DK-MG): < 50 nM
